Results published in publication PMC8950700 (Pharmaceuticals, 2022).
Where two headings read alike, the source gives them in different places.

What was measured:
[1] = system: A/chicken/Egypt/B13825A/2017 (H5N1wild); test: microbe, parasite or virus in culture; format: cell-based
H5N1V116A virus [2] = format: cell-based, influenza A virus; details: read-out: IC50 (50% Inhibitory Concentration) H5N1V116A
H5N1N295S virus [3] = format: cell-based, influenza A virus; details: read-out: IC50 (50% Inhibitory Concentration) H5N1N295S
[4] = system: A/California/04/2009 (H1N1); test: microbe, parasite or virus in culture; format: cell-based
H5N1wild virus [5] = test: microbe, parasite or virus in culture; format: cell-based
H5N1V116A virus [6] = format: cell-based, influenza A virus
H5N1N295S virus [7] = format: cell-based, influenza A virus
H5N1wild virus [8] = format: cell-based
H5N1V116A virus [9] = format: cell-based, influenza A virus; remark: listed apart in the source
H5N1N295S virus [10] = format: cell-based, influenza A virus; remark: listed apart in the source
H1N1 virus [11] = format: cell-based
H5N1wild virus [12] = details: mouse, in vivo
H1N1 virus [13] = details: mouse, in vivo
in vitro = details: dog
H1N1 virus [14] = format: cell-based, influenza A virus; details: 5 µM

| Structure (SMILES) | IC50 (H5N1V116A virus [2]) [µM] | IC50 (H5N1N295S virus [3]) [µM] | viral inhibition in the count of plaques, H5N1V116A (H5N1V116A virus [6]) [%] | viral inhibition in the count of plaques, H5N1N295S (H5N1N295S virus [7]) [%] | inhibition in the viral HA titer, H5N1wild (H5N1wild virus [8]) | inhibition in the viral HA titer, H5N1V116A (H5N1V116A virus [9]) | inhibition in the viral HA titer, H5N1N295S (H5N1N295S virus [10]) | inhibition in the viral HA titer, H1N1 (H1N1 virus [11]) | viral titer in lung tissue (TCID50), H5N1wild (H5N1wild virus [12]) | mortality after infection with H1N1 (H1N1 virus [13]) [%] | viral titer in lung tissue (TCID50), H1N1 (H1N1 virus [13]) | CC50 at 72 h (in vitro) [µM] | further results |
| --- | --- | --- | --- | --- | --- | --- | --- | --- | --- | --- | --- | --- | --- |
| CCOC(=O)C1=C[C@H](N)C(NC(C)=O)[C@H](OC(CC)CC)C1 (stereo partly shown) [oseltamivir, reference compound] | 309 | 25.8 | ~40 | ~8.5 | ≤ 20% | not more than 80% | ≤ 20% | not more than 80% | reduced the propagation | 60 | did not affect | 581 | IC50 ([1]; Influenza A virus, read-out: IC50 (50% Inhibitory Concentration) H5N1wild): 10.1 µM; IC50 ([1]; Influenza A virus, read-out: IC50 H5N1wild (Figure 5)): 10.1 µM; IC50 ([4]; Influenza A virus, H1N1, read-out: IC50 (50% Inhibitory Concentration) H1N1): 1.65 µM; inhibition at 5 µM (H5N1wild virus [5]; Influenza A virus, read-out: viral inhibition in the count of plaques, H5N1wild): ~90%; survival after infection with H5N1wild (H5N1wild virus [12]): 60% |
| CC(=O)N[C@H]1[C@H]([C@H](O)[C@H](O)CO)OC(C(=O)O)=C[C@@H]1N=C(N)N [zanamivir, reference compound] | 127 | 15 | 60 | 31 | not more than 25% | not more than 80% | not more than 25% | not more than 80% | reduced the titration | 40 | reduced the titration | 589 | IC50 ([1]; read-out: IC50 (50% Inhibitory Concentration) H5N1wild): 10.4 µM; IC50 ([4]; read-out: IC50 (50% Inhibitory Concentration) H1N1): 1.65 µM; viral inhibition in the count of plaques, H5N1wild (H5N1wild virus [5]): 69.2%; viral inhibition in the count of plaques, H1N1 (H1N1 virus [14]): 96.5%; virus shedding in the nasal wash (EID50), H1N1 (H1N1 virus [13]): significantly reduced the viral titer |
